Measured values taken from US20180085385A1, “GLUCOSE-SENSITIVE CELL PROTECTING AGENT” (THE UNIVERSITY OF TOKYO, priority 2015, published 2018).

Legend:
[1] = tested on: orexin nerve cells differentiated from human iPS cells; experiment: Disappearance of orexin nerve cells under high glucose concentration and protection or recovery from disappearance (Example 1); type: cell-based; conditions: for recovery of orexin nerve cells (expression of orexin): culture under high glucose concentration extended for 2 or 4 more days, compound then added to the medium; for disappearance of the orexin nerve cells (orexin (Hcrt) expression): high glucose concentration (25 mM), 8 days, addition concentration 10 μM ManNAc, 1 μM ManNAcF
Protocol: (§1) Total RNA was extracted from the harvested cells by using RNeasy plus Mini Kit (QIAGEN). Then, using SuperScript III First Strand Synthesis System (Invitrogen), a reverse transcription reaction was performed in a reaction mixture containing total RNA (1 μg) and Oligo (dT), whereby cDNA was synthesized.
(§2) PCR reaction was performed on a 10 μl scale, 1 U LA-Tag DNA Polymerase (Takara) was added to 0.5 μl of cDNA, 5 μl of 2×GC Buffer I, 200 μM of each dNTP, 1.5 mM MgCl2 and final concentration 0.2 μM of each primer and, after heat denaturation at 95° C. for 3 min, and PCR was performed under the conditions of (95° C. 30 sec, 55° C. 30 sec, 72° C. 30 sec)×35 cycles (20 cycles for Actb). The primers used are shown below.
(§3) Each PCR product was electrophoresed on 2% agarose gel and stained with ethidium bromide, and the bands were observed by UV irradiation.
The orexin nerve cells were cultured in a neuronal differentiation medium (G-MEM+10% KSR (Knockout Serum Replacement, Invitrogen)) for 8 days, and maintained in vitro. In this case, the cells were divided based on the glucose concentration in the medium into two groups having low glucose concentration (5 mM) and high glucose concentration (25 mM) and cultured.

[2] = tested on: orexin nerve cells differentiated from human iPS cells; experiment: Protection or recovery of orexin nerve cells under high glucose by various ManNAc derivatives (Example 3); type: cell-based; conditions: for recovery activity of orexin production (Hcrt expression intensity): 12-day course: high glucose 25 mM from day 0, compound 1 μM added from +day 8, harvested +day 12
Protocol: as §1, §2, §3
The orexin nerve cells were cultured in a neuronal differentiation medium (G-MEM+10% KSR (KnockOut Serum Replacement, Invitrogen)) for 8 days or 12 days, and maintained in vitro. In this case, the glucose concentration of the medium was set to a high glucose concentration (25 mM), ManNAc or various ManNAc derivatives (each 1 μM) were added, and the cells were cultured. In the 8-day culture course, glucose and ManNAc or various ManNAc derivatives were added to the medium from the start of the culture (+day 0), the cells were harvested on +day 8 the orexin expression was analyzed. As a control, orexin nerve cells cultured at low glucose concentration (5 mM) were prepared. In the 12-day culture course, high glucose was added from the start of the culture (+day 0), ManNAc or various ManNAc derivatives were added to the medium from +day 8 from the start of the culture, the cells were harvested on +day 12, and the orexin expression was analyzed. As a control, orexin nerve cells cultured at low glucose concentration (5 mM) from +day 8 from the start of the culture were prepared. According to the expression analysis by the RT-PCR method described in Reference Example 1, the expression of Hcrt gene was examined. Based on the expression of Hcrt gene in orexin nerve cells at the start of the culture, expression of Hcrt gene in orexin nerve cells after culture with the addition of ManNAc or various ManNAc derivatives under high glucose conditions is shown by expression intensity (FIG. 3).

human iPS cells = experiment: Orexin cell induction from human iPS cells (SDIA differentiation culture, Hcrt RT-PCR); type: cell-based; conditions: for orexin cell induction activity (Hcrt expression): 8, 40, 200 nM, 1 μM and 5 μM instead of 1.0 mM ManNAc, compared to ManNAc
Protocol: Human iPS cell line 201B7 (HSP0001) was obtained from BioResource Center, RIKEN, Japan via National BioResource project (MEXT, Japan). Human iPS cells were maintained on a feeder layer of mitomycin C-treated STO/Neo resistant/LIF(SNL) feeder cells in primates ES medium (ReproCELL) supplemented with 5 ng/mL recombinant human bFGF (Wako). For differentiation induction into nerve by SDIA and BMP4 system, human iPS cells were cocultured with PA6 for 20 days. 5 nM BMP4 was supplemented from day 7. From the start of the differentiation culture (day 0), ManNAc was added to a neuronal differentiation medium to 1.0 mM, and the medium was exchanged on days 7, 10 and 14 of differentiation culture. In addition, 5 nM recombinant human BMP4 (Wako) was added from day 7 of the differentiation culture. On day 14 of the differentiation culture, EX-527 (SIGMA-ALDRICH) was added to neuronal differentiation medium to 50 nM, or BADGP (SIGMA-ALDRICH) was added to neuronal differentiation medium to 5 mM, and the cells were harvested on day 20 of the differentiation culture and subjected to RT-PCR.
as §1, §2, §3
According to the method described in Reference Example 1 except that ManNAc, ManNAcF, 5S-ManNAc, 5S-ManNAcF, ManNCOOMe or ManNCOOEt (8, 40, 200 nM, 1 μM and 5 μM, respectively) was added instead of 1.0 mM ManNAc, orexin cells were induced from human iPS cells. The expression of orexin gene (Hcrt) in the cells induced under the various conditions was examined.

[3] = tested on: renal proximal tubule epithelial cells derived from type II diabetes patients (D-RPTEC); experiment: Histone O-GlcNAc modification level in D-RPTEC by immunofluorescence staining; type: cell-based, human; conditions: D-RPTEC cultured 96 hr under high glucose (25 mM glucose)
Protocol: Normal human renal proximal tubule epithelial cells and RPTEC derived from type II diabetes patients (D-RPTEC) were purchased from Lonza. RPTEC and D-RPTEC maintained with REGM™ Renal Epithelial Cell proliferation Medium Bullet Kit (Lonza) were each seeded in a 4-well dish at 1×10^4 cells per 1 well, and cultured for 4 days in a control medium or high glucose medium (adjusted to final concentration of 25 mM with 2.5 M glucose solution).
The cultured cells were fixed with 4% para-formaldehyde for 20 min and, after a permeabilization treatment with 0.2% TritonX-100-PBS solution, treated overnight with a blocking solution [PBS(−) containing 5% bovine serum-derived albumin (BSA), 0.1% Tween20, 0.2% TritonX-100] at 4° C. Then, the cells were reacted with anti-histone O-GlcNAc antibody (20B2) diluted with 5% BSA-PBS(−)-0.1% Tween20 at 4° C. overnight, reacted with secondary antibody diluted with PBS(−) at room temperature for 1 hr. The nucleus was stained with 1 μg/ml DAPI (Dojindo) at room temperature for 20 min, mounted in mountant (VECTASHIELD), and slides were prepared. Observation was performed with an integrated confocal laser microscope (FV10i, OLYMPUS). After obtaining images, the number of O-GlcNAc signals in the nucleus was measured by image analysis software Cell Profiler (www.cellprofiler.org), and statistical processing was performed by Wilcoxon rank-sum test. […]

[4] = tested on: orexin nerve cells in the brain of diabetic model mice (db/db mouse); experiment: Protection of nerve cells from disappearance at individual level, high fat feed db/db mouse, in situ hybridization; type: in vivo; conditions: high fat feed 6 to 8 weeks of age, 5 μg/μl ManNAc containing drinking water
Protocol: To confirm effectiveness of ManNAc for nerve cell protection at an individual level, the number of orexin nerve cells and orexin expression were examined using genetically obese mouse (db/db mouse, hetero mouse as control, all male) (each group n=6). The breeding conditions of each group (6-8 weeks old) are as described below. […]
high fat feed+drinking water group high fat feed+5 μg/μl ManNAc containing drinking water group normal food+drinking water group normal food+5 μg/μl ManNAc containing drinking water group
Three individual mice from each group mentioned above were subjected to Nembutal anesthesia, and perfusion was fixed with formamide fixative (Genostaff). The brain was taken out, embedded in paraffin, and sections with 6 μm thickness in the sagittal direction were prepared. […]
was cloned into […] vector (Promega), and using DIG RNA Labeling Mix (Roche) and the plasmid as a template, digoxigenin-labeled RNA probe was prepared. […] The cells expressing orexin gene were counted, and the mean of 3 individuals and standard error were determined.

[5] = tested on: Gne/Mnk M712T homozygous mutant mouse; conditions: mutant mice otherwise did not survive beyond age 3 after birth; cited from earlier work

CC(=O)N[C@H]1[C@@H](OCc2ccccc2)O[C@H](CO)[C@H](O)[C@@H]1O [BADGP, reference compound]
recovery of orexin nerve cells (expression of orexin) [1]: completely ineffective

CCOC(=O)NC1C(O)OC(CO)[C@@H](O)C1O (stereo partly shown) [ManNCOOEt]
recovery activity of orexin production (Hcrt expression intensity) [2]: low activity
orexin cell induction activity (Hcrt expression) (human iPS cells): higher orexin cell induction activity as compared to ManNAc

CC(=O)NC1C(O)SC(CO)[C@@H](O)[C@@H]1O (stereo partly drawn) [5S-ManNAc]
recovery activity of orexin production (Hcrt expression intensity) [2]: low activity

CC(=O)N[C@@H]1C(O)O[C@H](CO)[C@@H](O)[C@@H]1O (stereo partly drawn) [ManNAc, N-acetyl-D-mannosamine]
histone O-GlcNAc modification level [3]: increase in the histone O-GlcNAc modification level was observed
decrease in the number of orexin nerve cells and the orexin gene expression [4]: suppressed
survival of Gne/Mnk M712T homozygous mutant mice [5]: rescued the mice
recovery activity of orexin production (Hcrt expression intensity) [2]: higher
expression of orexin gene (Hcrt) (human iPS cells; 1.0 mM ManNAc from day 0, EX-527 50 nM or BADGP 5 mM from day 14, harvested day 20): expression of Hcrt was observed
recovery of orexin nerve cells (expression of orexin) [1]: expression of orexin was observed
disappearance of the orexin nerve cells (orexin (Hcrt) expression) [1]: disappearance of the orexin nerve cells could be avoided

COC(=O)NC1C(O)OC(CO)[C@@H](O)C1O (stereo partly shown) [ManNCOOMe]
maintenance of orexin production (Hcrt expression intensity) ([2]; 8-day course: high glucose 25 mM and compound 1 μM from +day 0, harvested +day 8): orexin production was maintained except for ManNCOOMe
recovery activity of orexin production (Hcrt expression intensity) [2]: low activity
orexin cell induction activity (Hcrt expression) (human iPS cells): higher orexin cell induction activity as compared to ManNAc

NC(=O)C1CCCc2c1[nH]c1ccc(Cl)cc21 (stereo not shown) [EX-527, reference compound]
recovery of orexin nerve cells (expression of orexin) [1]: completely ineffective

O=C(CF)NC1C(O)OC(CO)[C@@H](O)[C@@H]1O (stereo partly shown) [ManNAcF]
recovery activity of orexin production (Hcrt expression intensity) [2]: highest activity
orexin cell induction activity (Hcrt expression) (human iPS cells): higher orexin cell induction activity as compared to ManNAc
recovery of orexin nerve cells (expression of orexin) [1]: expression of orexin was observed
disappearance of the orexin nerve cells (orexin (Hcrt) expression) [1]: disappearance of the orexin nerve cells could be avoided
